Consider 2 molecules from publication PMC9247573 (Frontiers in Microbiology, 2022).

One series deals with T1, EcPsuK (Escherichia coli, UniProt Z9FTQ0OEG4).
T1 construct: N-terminal His6-SUMO removed with Ulp1; host E. coli BL21(DE3)
T1 sequence (Z9FTQ0OEG4 1-313): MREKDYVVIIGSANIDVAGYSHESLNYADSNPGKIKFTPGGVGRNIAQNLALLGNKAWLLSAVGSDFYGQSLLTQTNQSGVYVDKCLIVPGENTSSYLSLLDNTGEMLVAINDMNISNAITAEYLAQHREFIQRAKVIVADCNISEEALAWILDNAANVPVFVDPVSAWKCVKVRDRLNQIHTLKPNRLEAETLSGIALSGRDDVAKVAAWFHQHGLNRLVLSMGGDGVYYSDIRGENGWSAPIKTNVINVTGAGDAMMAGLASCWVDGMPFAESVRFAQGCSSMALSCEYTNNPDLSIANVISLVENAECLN
The series is described as follows: X-ray crystallography, […] Å. As to conditions: co-crystallised with ADP and Ψ, soaked with 1 mM Ψ and 4 mM ADP, MgCl2, pH 7.0, NaCl-purified protein; ADP not seen; nucleoside site; turnover also measured with ATP. In kind it is binding.

Series [1] deals with the molecule itself. Nature of the series: SEC; HiLoad 16/60 Superdex 200-pg, 10 mM Tris-HCl pH 8.0, 100 mM NaCl or 100 mM KCl; molecular weight of the purified protein against the calculated monomer.

Numbering of substitutions follows the chain as printed.

What is called stoichiometry N is a count of units in the complex or per binding partner.

Turning to `O=c1[nH]cc([C@@H]2O[C@H](CO)[C@@H](O)[C@H]2O)c(=O)[nH]1` [pseudouridine], the “X-ray crystallography, 2.30 Å” value on EcPsuK is on record as “we determined the crystal structure of EcPsuK complexed with pseudouridine through co-crystallization”.

B1: Escherichia coli pseudouridine kinase PsuK (enzyme, E. coli BL21 (DE3), UniProt P30235 1-313, looked up)
chain: T1 sequence (Z9FTQ0OEG4 1-313) with R129G, D203E, R235S, N238S
notes: E. coli pseudouridine kinase PsuK (YeiC), amplified from the E. coli BL21 (DE3) genome, Uniprot ID A0A140N873, aa 1-313 (313 residues, calculated 33.6 kDa); modelled from Arg2 to Asn308 in the apo structure; Cloned by BamHI and XhoI into a modified pET-28a with an Ulp1 cleavage site; also called EcPsuK; YeiC; source: E. coli BL21 (DE3), purified (Ni-NTA, Ulp1 cleavage, second Ni-NTA, Superdex …)
Take B1: the “stoichiometry N” value in series [1] was 2.
